Measurements as given in publication PMC7614687, “Modulation of the substrate specificity of the kinase PDK1 by distinct conformations of the full-length protein*” (Science signaling, 2023).

What was measured:
GST-PDK1_1-556 = target: T1, GST-PDK1_1-556 (Homo sapiens, UniProt O15530); test: AlphaScreen biotin-GS-022 / GST-PDK1_1-556 interaction; type: binding
T1 construct: made in house; host or cells: HEK293 cells (transient transfection of pEBG2T); peptide synthesized by Pepscan
T1 sequence (O15530 1-556): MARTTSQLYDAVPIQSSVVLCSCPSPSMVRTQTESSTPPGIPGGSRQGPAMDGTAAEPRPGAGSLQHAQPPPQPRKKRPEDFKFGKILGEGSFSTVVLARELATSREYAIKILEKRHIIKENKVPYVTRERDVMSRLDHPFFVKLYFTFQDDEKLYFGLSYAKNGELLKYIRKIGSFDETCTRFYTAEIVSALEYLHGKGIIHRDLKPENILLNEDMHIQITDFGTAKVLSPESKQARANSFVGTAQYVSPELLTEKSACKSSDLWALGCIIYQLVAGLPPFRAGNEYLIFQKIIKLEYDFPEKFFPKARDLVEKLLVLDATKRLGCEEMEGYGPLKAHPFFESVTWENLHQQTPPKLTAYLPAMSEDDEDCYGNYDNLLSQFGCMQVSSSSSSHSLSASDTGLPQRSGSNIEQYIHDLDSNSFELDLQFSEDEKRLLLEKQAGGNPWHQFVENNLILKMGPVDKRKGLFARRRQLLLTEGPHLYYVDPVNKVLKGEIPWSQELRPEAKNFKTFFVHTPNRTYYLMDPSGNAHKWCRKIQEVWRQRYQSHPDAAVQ
From the text: 163 independent experiments. (F-G) Interaction and displacement of interactions using
164 AlphaScreen technlology. (F) Interaction of biotin-GS-022 with GST-PDK11-556 and GST-
165 PDK11-359. N=2 independent experiments. (G) Effect of HYG8 on the interaction between
166 biotin-GS-022 and GST-PDK11-556. N=2 independent experiments.
167 The Thermo Fisher Scientific “PDK1 Direct” assay produced results quite different from those
168 obtained using our PDK1 kinase assay which uses [γ32P]ATP and T308tide
169 ([…]) as substrates. Phosphorylation of T308tide and of the alternative
170 peptides GS-022 ([…]) and GS-023 ([…]-K(5-FAM)) was
171 compared. GS-023 and GS-022 were phosphorylated efficiently by GST-PDK11-556, with over
172 30 and 10-fold higher turnover than T308tide, respectively (fig. S2A). The increased
174 GS-023 peptide provided a degree of improvement of substrate phosphorylation by PDK11-
175 556. GST-PDK11-359, comprising only the catalytic domain but lacking the linker region and the
176 PH domain, phosphorylated the three substrates similarly, with a slight increased turnover
177 towards GS-023 (fig. S2B). Thus, the phosphorylation of GS-23 and GS-022, but not that of
178 T308tide, depended on the construct used (figs. S2C-E). To assess a possible differential […]
180 that measured the interaction of biotin-GS-022 with GST-PDK11-556 and GST-PDK11-359. […]

PDK1 = target: T2, PDK1 (Homo sapiens, UniProt O15530); test: Thermo Fisher Scientific/Invitrogen PDK1 cascade assay (Akt2 as substrate, no PIP3); type: biochemical; conditions: 10-point titration
T2 sequence (O15530 1-556): T1 sequence (O15530 1-556)
Description: To explore the structural basis of this effect, we synthesized additional inositol phosphate derivatives related to IP5 (Fig. 2A). […] The first was Thermo Fisher Scientific/Invitrogen PDK1 cascade assay, which uses Akt as substrate in a coupled, cascade-type assay and in which the activity of PDK1 is measured by its ability to activate Akt. The second was the “PDK1 Direct” assay, which uses a peptide substrate (Ser/Thr 07) of undisclosed sequence (table S1) as the substrate of PDK1 and a readout of FRET between coumarin and fluorescein (5-FAM). […] Scyllo-IP5 and another synthetic derivative of IP5, 2-O-(2-aminoethyl)-IP5 (AMR1474), were weak inhibitors in the same assays (10% or less inhibition at 1 μM) (table S2).
The commercial PDK1 activity assays were provided by Thermo Fisher Scientific as a service. […] The ¨PDK1 Direct¨ biochemical assay measures the phosphorylation of a peptide termed Ser/Thr 07 that is labeled with a donor fluorophore (coumarin) and an acceptor fluorophore (fluorescein) to create a FRET pair. The peptide substrate was first incubated with the kinase and ATP-Mg (25 μM ATP), then non-phosphorylated peptide was cleaved with a protease. The remaining FRET corresponds to the phosphorylated substrate. […]

effect on interaction between GS-022 and PDK1_1-556 (GST-PDK1_1-556): potently
Hill slope, Cascade (PDK1): 2.19
IC50 (PDK1; absence of PIP3): 6.42 nM
SMILES: O=C(O[C@H]1[C@@H](OP(=O)(O)O)[C@H](OP(=O)(O)O)[C@@H](OP(=O)(O)O)[C@H](OP(=O)(O)O)[C@H]1OP(=O)(O)O)c1ccccc1 [HYG8, 2-O-benzoyl-IP5]
